According to PubChem BioAssay AID652041 (Broad Institute, 2013):
Several values for one entry are separate records, joined by “and”; a condition that tells them apart may be missing. Equal entries are not always repeated.

Tested on: P. falciparum HB3 in RBCs, SYBR Green DNA fluorescence
Test: antimalarial activity against intraerythrocytic HB3 parasites – HB3 strain, red blood cells, SYBR Green, cherry-picked, dose response (AID 652041);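 note: parasites exposed to compound for 72 hours before the DNA read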

SMILES	AC35
O=C(O)c1ccccc1NC(c1ccccc1)c1ccc2cccnc2c1O (stereo not given)	6.46 µM
CC1CCN(c2nc(-c3ccncc3)nc3ccccc23)CC1	8.17 µM
CCCc1cc(C(N)=O)c(NC(=O)c2cc(C)on2)s1	39.7 µM
C(=C1c2ccccc2-c2ccccc21)c1ccncc1	18.2 µM
Cc1cccc(N2CCN(C(=O)C3COc4ccccc4O3)CC2)c1C (stereo not given)	38.9 µM
COc1cc(/C=N/O)cc(Br)c1OCc1cccc(Cl)c1	28.1 µM
O=C(N/N=C/c1ccc[nH]1)c1sc2ccccc2c1Cl	15.8 µM
Oc1c(I)cc(Cl)c2cccnc12	1.67 µM
COc1cnc(-c2ccccn2)nc1Sc1ccccc1	9.03 µM
Cc1cccc2sc(NNC(=O)c3ccc(S(=O)(=O)N4CCCC(C)C4)cc3)nc12 (stereo not given)	4.44 µM
COc1ccc(/C=N/Nc2cc(C)nc(-n3nc(C)cc3C)n2)cc1	1.54 µM
CCn1c2ccc(C)cc2c2nc3cc(C(=O)O)ccc3nc21	37.1 µM
CC(C)C(=O)NC(c1cccc([N+](=O)[O-])c1)c1ccc2cccnc2c1O (stereo not given)	0.826 µM
COc1ccc(-c2oc3ccccc3c2C#Cc2cncn2C)cc1	0.87 µM
Cn1nc(C(F)(F)F)c(C#N)c1N1CCN(c2ccc(F)cc2)CC1	18.7 µM
CCN(CC)c1ccc(/C=N/NC(=O)c2c(Cl)cnn2C)c(O)c1	2.66 µM
CCCCC(=O)NC(c1ccco1)c1cc(Cl)c2cccnc2c1O (stereo not given)	1.62 µM
C[n+]1c2cc(N)ccc2cc2ccc(N)cc21	0.0524 µM
O=c1cc(CSc2ccc(Cl)cc2)nc(-c2ccccn2)[nH]1	2.3 µM
Oc1ccccc1-c1cc(-c2ccc3c(c2)OCCO3)n[nH]1	9.9 µM
O=c1c2ccccc2nc(-c2cccc(Cl)c2)n1O	28.2 µM
C=C(C)COc1ccc(-c2[nH]ncc2-c2ccc(Br)cc2)c(O)c1	2.25 µM

SMILES	AC35
COc1cccc(CC(=O)Nc2ccc3nc(C)sc3c2)c1	43.9 µM
Cc1ccoc1C(=O)Nc1cccc(Oc2ccccc2)c1	6.15 µM
O=[N+]([O-])c1ccc(Sc2cccc[n+]2[O-])c2nonc12	1.41 µM
CCC(C)n1ncn(-c2ccc(N3CCN(c4ccc(OCC5COC(Cn6cncn6)(c6ccc(Cl)cc6Cl)O5)cc4)CC3)cc2)c1=O (stereo not given)	3.81 µM
CCCCNc1c(-c2cccc(Sc3ccc(OC)cc3)c2)nc2ccccn12	8.77 µM
O=C(NCC1CC1(Cl)Cl)Nc1ccc(Cl)c(Cl)c1 (stereo not given)	5.48 µM
CCn1c(CNc2ccc(Cl)cc2)nnc1SCc1ccc(Cl)cc1	38.6 µM
c1ccc(C(=NNc2nc3ccccc3s2)c2ccccn2)cc1	2.22 µM
Oc1ccc(Br)cc1/C=N/Nc1ccccn1	1.61 µM
CCCC(C)Sc1nc2c([nH]1)c(=S)n(C)c(=O)n2C (stereo not given)	6.67 µM
COC(=O)C1=C(C)NC(C)=C(C(=O)OCC(C)C)C1c1ccccc1[N+](=O)[O-] (stereo not given)	4.63 µM
Cc1nc(SCc2ccc(OCCC(C)C)cc2)n[nH]1	13.1 µM
Cc1ccc2c(C)c3ccc4ccccc4c3c[n+]2c1	0.0701 µM
Cc1ccc(Sc2ccc(NC(=O)CCl)cc2)cc1C	0.321 µM
CN(Cc1ccc(Cl)s1)C(=O)CCl	5.21 µM
CC(=O)NC(c1cccc([N+](=O)[O-])c1)c1ccc2cccnc2c1O (stereo not given)	1.77 µM
CCCCCCCCCCOC(=O)Cn1c(COc2ccccc2OC)[n+](C)c2ccccc21	0.346 µM
O=S(=O)(Nc1ccccc1)c1ccc(Oc2ncc(C(F)(F)F)cc2Cl)cc1	25.1 µM
Cc1ccc(C)c(/C=C/C(=O)c2ccccc(=O)c2O)c1	8.27 µM
Cc1ccc(NC(=O)CN(C)C(=O)c2cccnc2Nc2cccc(C(F)(F)F)c2)cc1	10.5 µM
CC1=CC(=O)C=C(C)C1=NOS(=O)(=O)c1ccccc1	5.53 µM
FC(F)(F)c1nc(SCc2ccc(Cl)cc2Cl)n[nH]1	40 µM

SMILES	AC35
Clc1ccc(COC(Cn2ccnc2)c2ccc(Cl)cc2Cl)c(Cl)c1 (stereo not given)	1.57 µM and 1.95 µM
O=[N+]([O-])c1cccc(C=NNc2ccc3ccccc3n2)c1O	6.73 µM
Cc1nn(CCC#N)c(N)c1C1(O)C(=O)Nc2c(Cl)cc(Cl)cc21 (stereo not given)	7.41 µM
CC(=O)NC(c1ccc(C)cc1)c1cc([N+](=O)[O-])c2cccnc2c1O (stereo not given)	11.2 µM
Cc1cc(Nc2ccccc2)nn1C(=O)c1ccccc1	43.1 µM
Nc1cc2c3ccccc3ccc2c2ccccc12	0.249 µM
COc1cccc(/C=N/Nc2ncnc(Cl)c2N)c1O	0.942 µM
CCCCCCCn1c(=O)c(C(=O)OC)c(N)c2ccccc21	4.22 µM
O=c1c2ccccc2c(-c2ccc(O)cc2)nn1-c1cccc(C(F)(F)F)c1	3.52 µM
CC12CC3(C)CC(C)(C1)CC(NC(=O)N1CCCC1)(C2)C3	14.9 µM
CCCCCOc1ccc(CSc2n[nH]c(C)n2)cc1	8.7 µM
CN(C)c1ccc(C=c2c3ccccc3n3c2c2c([n+]3C)CCCC2)cc1	0.228 µM
CCCCCCCc1ccc(-c2ccc(O)cc2)nc1	4.88 µM
O=C(OCC(=O)C12CC3CC(CC(C3)C1)C2)c1ccc(O)cc1	23.4 µM
Cc1ccccc1C(=O)NNC(=S)NC(=O)c1ccc(Cl)cc1Cl	34.3 µM
CC(=O)Oc1ccc(OC(C)=O)c(SCCCCCCl)c1	2.56 µM
Cn1ccc(=Nc2ccc(NC(=O)c3ccc(N=c4ccn(C)c5ccc([N+](=O)[O-])cc45)cc3)cc2)cc1	< 0.0235 µM
Cc1ccc(Sc2cc(C)nc(-c3ccccn3)n2)cc1	6.03 µM
CNc1cc(CSC)nc(SCc2ccc(Cl)cc2Cl)n1	22.3 µM
CCc1ccc(S(=O)(=O)N(C(=O)c2ccncc2)c2ccc(OC(=O)c3ccncc3)cc2)cc1	41.7 µM
CNc1ccc2oc(C[C@H]3O[C@@]4(CC[C@H]3C)O[C@H]([C@H](C)C(=O)c3ccc[nH]3)[C@H](C)C[C@H]4C)nc2c1C(=O)O	0.833 µM
O=c1c2ccccc2nc(-c2ccc(-c3ccccc3)cc2)n1-c1ccncc1	18.3 µM

SMILES	AC35
CCCCOC(=O)/C=C/c1ccc(OC(=O)OC)c(OC(=O)OC)c1	11 µM
COc1cnc(-c2ccccn2)nc1Oc1ccc(C(C)(C)C)cc1	4.82 µM
O=Cc1cc(N=Nc2ccccc2Cl)ccc1O	2.27 µM
O/N=C/c1cc(Br)ccc1OCc1ccccc1F	29.2 µM
CC[n+]1c(/C=C/C=C/c2ccc(N(C)C)cc2)sc2ccccc21	2.68 µM
O=P(Nc1cccnc1)(Oc1ccccc1Cl)Oc1ccccc1Cl	37.1 µM
Cc1cccc(NC(=S)NC(C)CCc2ccccc2)c1 (stereo not given)	12.7 µM
Cc1ccc(NC2(c3nnnn3-c3c(C)cccc3C)CCCCC2)cc1	18 µM
CC1(C(=O)OCC(=O)Nc2ccc3ccccc3c2)CC1(Cl)Cl (stereo not given)	31.2 µM
Cc1ccc(NS(=O)(=O)c2ccc(N3CCN(c4ccc(O)cc4)CC3)c([N+](=O)[O-])c2)c(C)c1	10.4 µM
Cc1cc(Cl)ccc1C(=O)C1CCCN(C(=O)c2cncs2)C1 (stereo not given)	33.5 µM
CCN1C(=O)C(CC(=O)Nc2ccccc2Cl)N(NC(=O)c2cccc(F)c2)C1=S (stereo not given)	21.8 µM
Cc1cccc(Nc2nc(-c3ccc(O)cc3O)cs2)n1	18.6 µM
COc1ccccc1-c1sc2cc3c(cc2c1C#Cc1cncn1C)OCO3	2.96 µM
O=C(N/N=C/c1cc(Cl)cc([N+](=O)[O-])c1O)c1ccccc1NS(=O)(=O)c1cccs1	41.5 µM
CC(C)(C)n1nc(Cc2cccc3ccccc23)c2c(N)ncnc21	23.6 µM
COc1ccc(Sc2nc(-c3ccccn3)ncc2OC)cc1	3.53 µM
Fc1ccc(CCNC(=S)Nc2ccc(F)c(Cl)c2)cc1	14.1 µM
C=CCN(CC=C)C(=S)NC(=O)c1ccc(C)c(Br)c1	9.72 µM
